Reference: patent US20230159527A1, “COMPOUNDS AS BCL-2 INHIBITORS” (Fochon Pharmaceuticals, Ltd., priority 2020, published 2023)

Experiments:
RS4;11-BCL-2 F104L cells = experiment: Cell proliferation assay, engineered RS4;11 cells stably overexpressing BCL-2 F104L (MTS, 168 h); assay type: cell-based; settings: Homo sapiens, read-out: RS4, 11 BCL2-F104L
Method: MTS testing kit was purchased from Promega (Madison, Wis., USA). The RPMI-1640, Fetal bovine serum and Penicillin-Streptomycin were purchased from BI (Biological Industries, Beit Haemek, Israel). Puromycin was purchased from Beyotime (shanghai, China). Dimethyl sulfoxide (DMSO) was purchased from Sigma (St. Louis, Mo., USA). RS4;1l-BCL-2 G101V and RS4;11-BCL-2 F104L cells were cultured in RPM11640 supplemented with 1 ug/mL puromycin, 100 U/mL Penicillin-Streptomycin and 10% FBS.
To investigate whether a compound is able to inhibit the activity of BCL-2 mutation in cells, a mechanism-based assay using engineered cell lines stably overexpressing BCL-2 mutation ([…] and […]) was developed. In this assay, the inhibition of BCL-2 mutation was reflected by the inhibition of cell proliferation of RS4;11-BCL-2 G101V and RS4;11-BCL-2 F104L cells. Cells were plated into 96-well plates at optimized cell density (RS4;11-BCL-2 G101V: 5000 cells/well; RS4;11-BCL-2 F104L: 5000 cells/well). Plates were incubated at 37° C., with 5% CO2 for 4 h. Compounds were serially diluted to the final-concentrations of 10000, 3333.3, 1111.1, 370.4, 123.5, 41.2, 13.7, 4.6 and 1.4 nM and added to the plates. Plates were incubated at 37° C., with 5% CO2 for 168 h. 20 μl MTS was added into each well and the plates were incubated at 37° C., with 5% CO2 exactly for 2 h. The absorbance was measured by a microplate reader at 490 nm. IC50 values were calculated using GraphPad Prism 5.0 software.

Toledo cells = experiment: Cell proliferation assay, Toledo cells (MTS, 72 h); assay type: cell-based; settings: Homo sapiens, Toledo cells, MTS, read-out: Toledo IC50
Procedure, shortened: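 IC50 was derived from 490 nm absorbance after a 2 h MTS step. Before that, compounds at 1.5–10000 nM final (nine points) acted on Toledo cells for 72 h at 37 °C, 5% CO2. Cells were seeded at 30000/well in 10% FBS RPMI-1640 and rested 4 h before dosing.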

SMILES | IC50 (RS4;11-BCL-2 F104L cells) | IC50 (Toledo cells)
Cc1nc2[nH]cc(F)c2cc1Oc1cc(N2CCC3(CC2)CN([C@H]2CCC[C@H]2c2ccccc2C(C)C)C3)ccc1C(=O)NS(=O)(=O)c1cc2c(c([N+](=O)[O-])c1)N[C@@H]([C@H]1CC[C@](C)(O)CC1)CO2 (single isomer, unassigned) [Example D-240, 2-((3-fluoro-6-methyl-1H-pyrrolo [2,3-b]pyridin-5-yl)oxy)-N-(((S)-3-((1r,4S)-4-hydroxy-4-methylcyclohexyl)-5-nitro-3,4-dihydro-2H-benzo[b][1,4]oxazin-7-yl)sulfonyl)-4-(2-((1S,2S or 1R,2R)-2-(2-isopropylphenyl)cyclopentyl)-2,7-diazaspiro[3.5]nonan-7-yl)benzamide] | 10 nM | 1 nM
CC(C)c1ccccc1[C@@H]1CCC[C@@H]1N1CC2(CCN(c3ccc(C(=O)NS(=O)(=O)c4ccc(NC[C@H]5CC[C@](C)(O)CC5)c([N+](=O)[O-])c4)c(Oc4cc5cc[nH]c5nc4F)c3)CC2)C1 (single isomer, unassigned) [Example D-116, 2-((6-fluoro-1H-pyrrolo[2,3-b]pyridin-5-yl)oxy)-N-((4-((1r,4r)-4-hydroxy-4-methylcyclohexyl)methyl)amino)-3-nitrophenyl) sulfonyl)-4-(2-((1S,2S or 1R,2R)-2-(2-isopropylphenyl) cyclopentyl)-2,7-diazaspiro[3.5] nonan-7-yl)benzamide] | 1 nM | 1 nM
Cc1nc2[nH]cc(F)c2cc1Oc1cc(N2CCC3(CC2)CC(N2CCC[C@H]2c2ccccc2C(C)C)C3)ccc1C(=O)NS(=O)(=O)c1cc2c(c([N+](=O)[O-])c1)N[C@@H]([C@H]1CC[C@](C)(O)CC1)CO2 (single isomer, unassigned) [Example D-244, 2-((3-fluoro-6-methyl-1H-pyrrolo [2,3-b]pyridin-5-yl)oxy)-N-(((S)-3-((1r,4S)-4-hydroxy-4-methylcyclohexyl)-5-nitro-3,4-dihydro-2H-benzo[b][1,4]oxazin-7-yl)sulfonyl)-4-(2-((R or S)-2-(2-isopropylphenyl)pyrrolidin-1-yl)-7-azaspiro[3.5]nonan-7-yl)benzamide] | 1 nM | 1 nM
COc1nc2[nH]ccc2cc1Oc1cc(N2CCC3(CC2)CC(N2CCC[C@H]2c2ccccc2C(C)C)C3)ccc1C(=O)NS(=O)(=O)c1cc2c(c([N+](=O)[O-])c1)N[C@@H]([C@H]1CC[C@](C)(O)CC1)CO2 (single isomer, unassigned) [Example D-10, N-(((S)-3-((1r,4S)-4-hydroxy-4-methylcyclohexyl)-5-nitro-3,4-dihydro-2H-benzo[b][1,4]oxazin-7-yl)sulfonyl)-4-(2-((R or S)-2-(2-isopropylphenyl)pyrrolidin-1-yl)-7-azaspiro[3.5]nonan-7-yl)-2-((6-methoxy-1H-pyrrolo [2,3-b]pyridin-5-yl)oxy)benzamide] | 34 nM | 1 nM
CCc1nc2[nH]cc(F)c2cc1Oc1cc(N2CCC3(CC2)CN([C@H]2CCC[C@H]2c2ccccc2C(C)C)C3)ccc1C(=O)NS(=O)(=O)c1ccc(NC[C@H]2CC[C@](C)(O)CC2)c([N+](=O)[O-])c1 (single isomer, unassigned) [Example D-235, 2-((6-ethyl-3-fluoro-1H-pyrrolo [2,3-b]pyridin-5-yl)oxy)-N-((4-(((1r,4r)-4-hydroxy-4-methylcyclohexyl)methyl)amino)-3-nitrophenyl) sulfonyl)-4-(2-((1S,2S or 1R,2R)-2-(2-isopropylphenyl)cyclopentyl)-2,7-diazaspiro[3.5] nonan-7-yl)benzamide] | 10 nM | –
COc1nc2[nH]cc(F)c2cc1Oc1cc(N2CCC3(CC2)CC(N2CCC[C@H]2c2ccccc2C(C)C)C3)ccc1C(=O)NS(=O)(=O)c1cc2c(c([N+](=O)[O-])c1)N[C@@H]([C@H]1CC[C@](C)(O)CC1)CO2 (single isomer, unassigned) [Example D-83, 2-((3-fluoro-6-methoxy-1H-pyrrolo [2,3-b]pyridin-5-yl)oxy)-N-(((S)-3-((1r,4S)-4-hydroxy-4-methylcyclohexyl)-5-nitro-3,4-dihydro-2H-benzo[b][1,4]oxazin-7-yl)sulfonyl)-4-(2-((R or S)-2-(2-isopropylphenyl)pyrrolidin-1-yl)-7-azaspiro[3.5]nonan-7-yl)benzamide] | 8 nM | 1 nM
CCc1nc2[nH]cc(F)c2cc1Oc1cc(N2CCC3(CC2)CN([C@H]2CCC[C@H]2c2ccccc2C(C)C)C3)ccc1C(=O)NS(=O)(=O)c1cc2c(c([N+](=O)[O-])c1)N[C@@H]([C@H]1CC[C@](C)(O)CC1)CO2 (single isomer, unassigned) [Example D-239, 2-((6-ethyl-3-fluoro-1H-pyrrolo [2,3-b]pyridin-5-yl)oxy)-N-(((S)-3-((1r,4S)-4-hydroxy-4-methylcyclohexyl)-5-nitro-3,4-dihydro-2H-benzo[b][1,4]oxazin-7-yl)sulfonyl)-4-(2-((1S,2S or 1R,2R)-2-(2-isopropylphenyl)cyclopentyl)-2,7-diazaspiro[3.5]nonan-7-yl)benzamide] | 5 nM | –
CC(C)c1ccccc1[C@@H]1CCC[C@@H]1N1CC2(CCN(c3ccc(C(=O)NS(=O)(=O)c4cc5c(c([N+](=O)[O-])c4)N[C@@H]([C@H]4CC[C@](C)(O)CC4)CO5)c(Oc4cc5cc[nH]c5nc4F)c3)CC2)C1 (single isomer, unassigned) [Example D-117, 2-((6-fluoro-1H-pyrrolo[2,3-b]pyridin-5-yl)oxy)-N-(((S)-3-((1r,4S)-4-hydroxy-4-methylcyclohexyl)-5-nitro-3,4-dihydro-2H-benzo[b] [1,4]oxazin-7-yl)sulfonyl)-4-(2-((1S,2S or 1R,2R)-2-(2-isopropylphenyl)cyclopentyl)-2,7-diazaspiro[3.5]nonan-7-yl)benzamide] | 1 nM | 1 nM
CCOc1nc2[nH]cc(F)c2cc1Oc1cc(N2CCC3(CC2)CN([C@H]2CCC[C@H]2c2ccccc2C(C)C)C3)ccc1C(=O)NS(=O)(=O)c1ccc(NC[C@H]2CC[C@](C)(O)CC2)c([N+](=O)[O-])c1 (single isomer, unassigned) [Example D-110, 2-((6-ethoxy-3-fluoro-1H-pyrrolo [2,3-b]pyridin-5-yl)oxy)-N-((4-((((1r,4r)-4-hydroxy-4-methylcyclohexyl)methyl)amino)-3-nitrophenyl)sulfonyl)-4-(2-((1S,2S or 1R,2R)-2-(2-isopropylphenyl)cyclopentyl)-2,7-diazaspiro[3.5]nonan-7-yl)benzamide] | 15 nM | 1 nM
Cc1nc2[nH]cc(F)c2cc1Oc1cc(N2CCC3(CC2)CN([C@H]2CCC[C@H]2c2ccccc2C(C)C)C3)ccc1C(=O)NS(=O)(=O)c1ccc(NC[C@H]2CC[C@](C)(O)CC2)c([N+](=O)[O-])c1 (single isomer, unassigned) [Example D-234, 2-((3-fluoro-6-methyl-1H-pyrrolo [2,3-b]pyridin-5-yl)oxy)-N-((4-((((1r,4r)-4-hydroxy-4-methylcyclohexyl)methyl)amino)-3-nitrophenyl)sulfonyl)-4-(2-((1S,2S or 1R,2R)-2-(2-isopropylphenyl)cyclopentyl)-2,7-diazaspiro[3.5]nonan-7-yl)benzamide] | 8 nM | 1 nM
CC(C)c1ccccc1[C@@H]1CCC[C@@H]1N1CC2(CCN(c3ccc(C(=O)NS(=O)(=O)c4cnc(NC[C@H]5CC[C@](C)(O)CC5)c([N+](=O)[O-])c4)c(Oc4cc5cc[nH]c5nc4F)c3)CC2)C1 (single isomer, unassigned) [Example A-158, 2-((6-fluoro-1H-pyrrolo[2,3-b]pyridin-5-yl)oxy)-N-((6-((((1r,4r)-4-hydroxy-4-methylcyclohexyl)methyl)amino)-5-nitropyridin-3-yl)sulfonyl)-4-(2-((1S,2S or 1R,2R)-2-(2-isopropylphenyl)cyclo-pentyl)-2,7-diazaspiro[3.5]nonan-7-yl) benzamide] | 8 nM | 1 nM
CCc1nc2[nH]cc(F)c2cc1Oc1cc(N2CCC3(CC2)CN([C@H]2CCC[C@H]2c2ccccc2C(C)C)C3)ccc1C(=O)NS(=O)(=O)c1cnc(NC[C@H]2CC[C@](C)(O)CC2)c([N+](=O)[O-])c1 (single isomer, unassigned) [Example A-157, 2-((6-ethyl-3-fluoro-1H-pyrrolo[2,3-b]pyridin-5-yl)oxy)-N-((6-((((1r,4r) 4-hydroxy-4-methylcyclohexyl)methyl)amino)-5-nitropyridin-3-yl)sulfonyl)-4-(2-((1S,2S or 1R,2R)-2-(2-isopropylphenyl)cyclo-pentyl)-2,7-diazaspiro[3.5]nonan-7-yl) benzamide] | 23 nM | –
